The values below are quoted from earlier work in patent publication US20050049255A1, “Therapeutic combinations” (Pfizer Inc, priority 2003, published 2005).

The data set relates to dysmenorrhoea.

Turning to `COc1ccc(S(=O)(=O)N2c3ccc(Cl)cc3[C@](O)(c3ccccc3Cl)[C@@H]2C(=O)N2CCC[C@H]2C(N)=O)cc1OC` [Relcovaptan], where the note is “double blind, randomised placebo controlled cross over trial, oral”, the “intensity of pain in women with dysmenorrhoea” value is “dose dependently reduced the intensity of pain”.
For the molecule “1-deamino-2-D-Tyr (Oet)-4-Thr-8-Orn-oxytocin”, the “efficacy in the treatment of dysmenorrhoea” value (given intravenously, pilot study) is reported as “effective in the treatment of dysmenorrhoea”.
